Results taken from the supplement of paper PMC6045584.
± gives the standard deviation of the averaged measurements.

Each test system was assayed with COCC[n+]1c2c(n(Cc3cnccn3)c1C)C(=O)c1ccccc1C2=O [YM155] (assay: surviving fraction relative to DMSO-only wells; higher = less growth inhibition). Details: 100 nM; exposure time: 5 days.
Summary of the method: (§1)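 Lines were retained only if, across three screens, replicate Pearson r was >0.7 and median Z' was >0.3. Viability was measured as CellTiter-Glo luminescence and reported as surviving fraction relative to the median of DMSO-only wells. Readings followed 10 minutes at room temperature, after log-phase tumour cells seeded at 250–500 per well in 384-well plates had been exposed, from 24 hours after seeding, continuously for five days to inhibitors at 0.5, 1, 5, 10, 50, 100, 500 and 1000 nM.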

Test System	surviving fraction
HELA CERVIX	0.021 ± 0.0013
KPD BONE	0.0347 ± 0.004
MCF7 BREAST	0.043 ± 0.003
PCI30 HEADNECK	0.024 ± 0.0017

Same assay, conditions: 500 nM; exposure time: 5 days

Test System	surviving fraction
HCT15 LARGE INTESTINE	0.061 ± 0.0027
HELA CERVIX	0.0187 ± 0.00058
KPD BONE	0.0237 ± 0.0025
MCF7 BREAST	0.0207 ± 0.00033
PCI30 HEADNECK	0.021 ± 0.0017

Same assay, conditions: 1000 nM; exposure time: 5 days

Test System	surviving fraction
HCT15 LARGE INTESTINE	0.0557 ± 0.0031
HELA CERVIX	0.0228 ± 0.00076
KPD BONE	0.0257 ± 0.0021
MCF7 BREAST	0.0226 ± 0.0014
PCI30 HEADNECK	0.0233 ± 0.00058

These test systems were tested with Cc1ccc(-c2cc(C(F)(F)F)nn2-c2ccc(S(N)(=O)=O)cc2)cc1 [CELECOXIB] in the same assay as above. Details: 0.5 nM; exposure time: 5 days.
Summary of the method: as §1

Test System	surviving fraction
HCT15 LARGE INTESTINE	1.02 ± 0.062
HELA CERVIX	1.09 ± 0.049
KPD BONE	1.04 ± 0.1
MCF7 BREAST	0.933 ± 0.053
PCI30 HEADNECK	1.02 ± 0.095

Same assay, conditions: 1 nM; exposure time: 5 days

Test System	surviving fraction
HCT15 LARGE INTESTINE	1.03 ± 0.031
HELA CERVIX	1.11 ± 0.047
KPD BONE	1.01 ± 0.054
MCF7 BREAST	0.922 ± 0.05
PCI30 HEADNECK	1 ± 0.057

Same assay, conditions: 5 nM; exposure time: 5 days

Test System	surviving fraction
HCT15 LARGE INTESTINE	1.06 ± 0.039
HELA CERVIX	1.05 ± 0.058
KPD BONE	1.11 ± 0.065
MCF7 BREAST	0.938 ± 0.013
PCI30 HEADNECK	1.07 ± 0.044

Same assay, conditions: 10 nM; exposure time: 5 days

Test System	surviving fraction
HCT15 LARGE INTESTINE	1.04 ± 0.022
HELA CERVIX	1.05 ± 0.039
KPD BONE	1.07 ± 0.029
MCF7 BREAST	0.927 ± 0.035
PCI30 HEADNECK	1.07 ± 0.046

Same assay, conditions: 50 nM; exposure time: 5 days

Test System	surviving fraction
HCT15 LARGE INTESTINE	1.07 ± 0.061
HELA CERVIX	1.09 ± 0.018
KPD BONE	1.05 ± 0.04
MCF7 BREAST	0.937 ± 0.042
PCI30 HEADNECK	1.03 ± 0.12

Same assay, conditions: 100 nM; exposure time: 5 days

Test System	surviving fraction
HCT15 LARGE INTESTINE	1.07 ± 0.077
HELA CERVIX	1.16 ± 0.044
KPD BONE	1.07 ± 0.12
MCF7 BREAST	0.942 ± 0.093
PCI30 HEADNECK	1.01 ± 0.013

Same assay, conditions: 500 nM; exposure time: 5 days

Test System	surviving fraction
HCT15 LARGE INTESTINE	1.09 ± 0.053
HELA CERVIX	1.14 ± 0.033
KPD BONE	1.05 ± 0.012
MCF7 BREAST	1 ± 0.011
PCI30 HEADNECK	0.975 ± 0.051

Same assay, conditions: 1000 nM; exposure time: 5 days

Test System	surviving fraction
HCT15 LARGE INTESTINE	1.1 ± 0.044
HELA CERVIX	1.13 ± 0.049
